Numbered stars: 1 amine (or outer) side, 2 acyl side, 3 side chain; on linkers, the order of the positions; unused ones are H or OH. Bridge positions count the residues as written; N and C are the ends. Side chains are listed from the residue outwards. Peptide text beside a SMILES is read from it. * marks the point of attachment. C20 diacid = O=C(O)CCCCCCCCCCCCCCCCCCC(=O)*; γGlu = O=C(O)[C@H](CCC(=O)[*:2])N[*:1]
Key:
[1] = Freeze-thaw stability of derivatives (freeze-thaw yield by liquid chromatography); type: physicochemical; details: for Dissolution property: appearance after dissolution at 0.2 mg/ml in 20 mM phosphate buffer solution (PB) (pH 7.0); for Freeze storage property: appearance after overnight storage at −20° C. and thawing to room temperature, 0.2 mg/ml in 20 mM PB (pH 7.0)
Method in brief: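 Freeze-thaw yield is the ratio of peptide concentration after versus before one overnight −20° C freeze and room-temperature thaw, both quantified by RP-HPLC of supernatant after centrifugation. Samples were 0.2 mg/ml freeze-dried derivative in 20 mM PB, pH 7.0.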

human amylin receptor = target: T1, human amylin receptor (Homo sapiens, UniProt O60896+P30988); test: Luciferase assay of amylin derivatives in amylin receptor/CRE-luc CHO cell line; type: cell-based; details: CHO-K1/Ga15/AMY3 CRE-luc cells, 24 hours incubation, F12 medium containing 10% FBS; read-out: EC50
T1 construct: host or cells: CHO-K1/Ga15/AMY3 cells, further stably transfected with a CRE-luciferase plasmid
T1 sequence (P30988 25-474): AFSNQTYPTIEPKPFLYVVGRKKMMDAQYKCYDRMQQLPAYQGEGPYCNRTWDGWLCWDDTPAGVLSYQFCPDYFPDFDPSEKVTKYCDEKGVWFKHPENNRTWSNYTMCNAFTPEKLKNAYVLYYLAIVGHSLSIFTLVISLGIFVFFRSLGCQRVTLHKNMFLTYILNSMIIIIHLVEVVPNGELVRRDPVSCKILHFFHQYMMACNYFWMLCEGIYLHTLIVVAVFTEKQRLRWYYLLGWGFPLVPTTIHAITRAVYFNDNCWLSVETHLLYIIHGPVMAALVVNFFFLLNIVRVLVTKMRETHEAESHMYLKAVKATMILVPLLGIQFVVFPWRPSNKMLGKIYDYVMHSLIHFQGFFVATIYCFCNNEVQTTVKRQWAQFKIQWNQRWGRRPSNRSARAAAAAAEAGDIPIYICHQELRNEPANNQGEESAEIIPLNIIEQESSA
T1 sequence (O60896 24-148 partner): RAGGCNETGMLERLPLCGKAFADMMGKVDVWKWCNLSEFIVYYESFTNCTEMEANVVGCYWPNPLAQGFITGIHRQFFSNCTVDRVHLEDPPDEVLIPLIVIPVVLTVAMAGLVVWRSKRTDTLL
Method: The experiment was intended to detect the activity or efficacy of the amylin derivatives on a human amylin receptor in vitro by luciferase assay.
50 μL of growth medium (F12 medium containing 10% FBS) was added into each well of a white 96-well plate, and the stably transfected amylin/CRE-lue CHO cells were inoculated into the white 96-well plate at a density of about 20,000 cells/well for activity determination.

What does the source list for CC[C@H](C)[C@H](NC(=O)[C@@H]1CCCN1C(=O)CNC(=O)[C@H](CC(C)C)NC(=O)[C@H](CC(N)=O)NC(=O)[C@H](CCCCNC(=O)CC[C@H](NC(=O)CCCCCCCCCCCCCCCCCCC(=O)O)C(=O)O)NC(=O)[C@H](CO)NC(=O)[C@H](CO)NC(=O)[C@H](Cc1c[nH]cn1)NC(=O)[C@H](CCCNC(=N)N)NC(=O)[C@H](CC(C)C)NC(=O)[C@H](Cc1ccccc1)NC(=O)[C@H](CCC(=O)O)NC(=O)[C@H](C)NC(=O)[C@H](CC(C)C)NC(=O)[C@H](CCCNC(=N)N)NC(=O)[C@H](CCC(N)=O)NC(=O)[C@@H](NC(=O)[C@H](C)NC(=O)[C@@H]1CSSC[C@H](NC(=O)[C@@H](N)CCCNC(=N)N)C(=O)N[C@@H](CC(N)=O)C(=O)N[C@@H]([C@@H](C)O)C(=O)N[C@@H](C)C(=O)N[C@@H]([C@@H](C)O)C(=O)N1)[C@@H](C)O)C(=O)N[C@@H](CC(C)C)C(=O)N1CCC[C@H]1C(=O)N1CCC[C@H]1C(=O)N[C@H](C(=O)N[C@@H](CC(N)=O)C(=O)N[C@H](C(=O)NCC(=O)N[C@@H](CO)C(=O)N[C@@H](CC(N)=O)C(=O)N[C@H](C(=O)N1CCC[C@H]1C(N)=O)[C@@H](C)O)C(C)C)[C@@H](C)O [PD006] (H-RCNTATCATQRLAEFLRHSSK([γGlu-C20 diacid])NLGPILPPTNVGSNTP-NH2; disulfide 2-7 (inferred); N-terminus assumed)?
Dissolution property [1]: Clear; Freeze storage property [1]: Clear; EC50 (human amylin receptor): 0.129 nM

Which Dissolution property [1] does the source give for CC[C@H](C)[C@H](NC(=O)[C@@H]1CCCN1C(=O)CNC(=O)[C@H](CC(C)C)NC(=O)[C@H](CCCCNC(=O)CC[C@H](NC(=O)CCCCCCCCCCCCCCCCCCC(=O)O)C(=O)O)NC(=O)[C@H](CC(N)=O)NC(=O)[C@H](CO)NC(=O)[C@H](CO)NC(=O)[C@H](Cc1c[nH]cn1)NC(=O)[C@H](CCCNC(=N)N)NC(=O)[C@H](CC(C)C)NC(=O)[C@H](Cc1ccccc1)NC(=O)[C@H](CCC(=O)O)NC(=O)[C@H](C)NC(=O)[C@H](CC(C)C)NC(=O)[C@H](CCCNC(=N)N)NC(=O)[C@H](CCC(N)=O)NC(=O)[C@@H](NC(=O)[C@H](C)NC(=O)[C@@H]1CSSC[C@H](NC(=O)[C@@H](N)CCCNC(=N)N)C(=O)N[C@@H](CC(N)=O)C(=O)N[C@@H]([C@@H](C)O)C(=O)N[C@@H](C)C(=O)N[C@@H]([C@@H](C)O)C(=O)N1)[C@@H](C)O)C(=O)N[C@@H](CC(C)C)C(=O)N1CCC[C@H]1C(=O)N1CCC[C@H]1C(=O)N[C@H](C(=O)N[C@@H](CC(N)=O)C(=O)N[C@H](C(=O)NCC(=O)N[C@@H](CO)C(=O)N[C@@H](CC(N)=O)C(=O)N[C@H](C(=O)N1CCC[C@H]1C(N)=O)[C@@H](C)O)C(C)C)[C@@H](C)O [PD007] (H-RCNTATCATQRLAEFLRHSSNK([γGlu-C20 diacid])LGPILPPTNVGSNTP-NH2; disulfide 2-7 (inferred); N-terminus assumed) here?
The Dissolution property was “Clear”.

What about the Freeze storage property [1] of the same compound?
The Freeze storage property was “Clear”.

What about the EC50 (human amylin receptor) of the same compound?
The EC50 was 0.205 nM.

For CC[C@H](C)[C@H](NC(=O)[C@@H]1CCCN1C(=O)CNC(=O)[C@H](CCCCNC(=O)CC[C@H](NC(=O)CCCCCCCCCCCCCCCCCCC(=O)O)C(=O)O)NC(=O)[C@H](CC(N)=O)NC(=O)[C@H](CC(N)=O)NC(=O)[C@H](CO)NC(=O)[C@H](CO)NC(=O)[C@H](Cc1c[nH]cn1)NC(=O)[C@H](CCCNC(=N)N)NC(=O)[C@H](CC(C)C)NC(=O)[C@H](Cc1ccccc1)NC(=O)[C@H](CCC(=O)O)NC(=O)[C@H](C)NC(=O)[C@H](CC(C)C)NC(=O)[C@H](CCCNC(=N)N)NC(=O)[C@H](CCC(N)=O)NC(=O)[C@@H](NC(=O)[C@H](C)NC(=O)[C@@H]1CSSC[C@H](NC(=O)[C@@H](N)CCCNC(=N)N)C(=O)N[C@@H](CC(N)=O)C(=O)N[C@@H]([C@@H](C)O)C(=O)N[C@@H](C)C(=O)N[C@@H]([C@@H](C)O)C(=O)N1)[C@@H](C)O)C(=O)N[C@@H](CC(C)C)C(=O)N1CCC[C@H]1C(=O)N1CCC[C@H]1C(=O)N[C@H](C(=O)N[C@@H](CC(N)=O)C(=O)N[C@H](C(=O)NCC(=O)N[C@@H](CO)C(=O)N[C@@H](CC(N)=O)C(=O)N[C@H](C(=O)N1CCC[C@H]1C(N)=O)[C@@H](C)O)C(C)C)[C@@H](C)O [PD008] (H-RCNTATCATQRLAEFLRHSSNNK([γGlu-C20 diacid])GPILPPTNVGSNTP-NH2; disulfide 2-7 (inferred)), which Dissolution property [1] is on record?
Its Dissolution property is “Clear”.

And the Freeze storage property [1]?
The Freeze storage property was “Clear”.

What about the EC50 (human amylin receptor) of the same compound?
Its EC50 is 0.281 nM.

What does the source list for CC[C@H](C)[C@H](NC(=O)[C@@H]1CCCN1C(=O)[C@H](CCCCNC(=O)CC[C@H](NC(=O)CCCCCCCCCCCCCCCCCCC(=O)O)C(=O)O)NC(=O)[C@H](CC(C)C)NC(=O)[C@H](CC(N)=O)NC(=O)[C@H](CC(N)=O)NC(=O)[C@H](CO)NC(=O)[C@H](CO)NC(=O)[C@H](Cc1c[nH]cn1)NC(=O)[C@H](CCCNC(=N)N)NC(=O)[C@H](CC(C)C)NC(=O)[C@H](Cc1ccccc1)NC(=O)[C@H](CCC(=O)O)NC(=O)[C@H](C)NC(=O)[C@H](CC(C)C)NC(=O)[C@H](CCCNC(=N)N)NC(=O)[C@H](CCC(N)=O)NC(=O)[C@@H](NC(=O)[C@H](C)NC(=O)[C@@H]1CSSC[C@H](NC(=O)[C@@H](N)CCCNC(=N)N)C(=O)N[C@@H](CC(N)=O)C(=O)N[C@@H]([C@@H](C)O)C(=O)N[C@@H](C)C(=O)N[C@@H]([C@@H](C)O)C(=O)N1)[C@@H](C)O)C(=O)N[C@@H](CC(C)C)C(=O)N1CCC[C@H]1C(=O)N1CCC[C@H]1C(=O)N[C@H](C(=O)N[C@@H](CC(N)=O)C(=O)N[C@H](C(=O)NCC(=O)N[C@@H](CO)C(=O)N[C@@H](CC(N)=O)C(=O)N[C@H](C(=O)N1CCC[C@H]1C(N)=O)[C@@H](C)O)C(C)C)[C@@H](C)O [PD009] (H-RCNTATCATQRLAEFLRHSSNNLK([γGlu-C20 diacid])PILPPTNVGSNTP-NH2; disulfide 2-7 (inferred))?
Dissolution property [1]: Clear; Freeze storage property [1]: Clear; EC50 (human amylin receptor): 0.067 nM

With CC[C@H](C)[C@H](NC(=O)[C@@H]1CCCN1C(=O)[C@H](CCCCNC(=O)CC[C@H](NC(=O)CCCCCCCCCCCCCCCCCCC(=O)O)C(=O)O)NC(=O)[C@H](CC(C)C)NC(=O)[C@H](CC(N)=O)NC(=O)[C@H](CC(N)=O)NC(=O)[C@H](CO)NC(=O)[C@H](CO)NC(=O)[C@H](Cc1c[nH]cn1)NC(=O)[C@H](CCCNC(=N)N)NC(=O)[C@H](CC(C)C)NC(=O)[C@H](Cc1ccccc1)NC(=O)[C@H](CCC(=O)O)NC(=O)[C@H](C)NC(=O)[C@H](CC(C)C)NC(=O)[C@H](CCCNC(=N)N)NC(=O)[C@H](CCC(N)=O)NC(=O)[C@@H](NC(=O)[C@H](C)NC(=O)[C@@H]1CSSC[C@H](NC(=O)[C@@H](N)CCCNC(=N)N)C(=O)N[C@@H](CC(N)=O)C(=O)N[C@@H]([C@@H](C)O)C(=O)N[C@@H](C)C(=O)N[C@@H]([C@@H](C)O)C(=O)N1)[C@@H](C)O)C(=O)N[C@@H](CC(C)C)C(=O)N1CCC[C@H]1C(=O)N1CCC[C@H]1C(=O)N[C@H](C(=O)N[C@@H](CC(N)=O)C(=O)N[C@H](C(=O)NCC(=O)N[C@@H](CO)C(=O)N[C@@H](CC(N)=O)C(=O)N[C@H](C(=O)N[C@@H](Cc1ccc(O)cc1)C(N)=O)[C@@H](C)O)C(C)C)[C@@H](C)O [PD017] (H-RCNTATCATQRLAEFLRHSSNNLK([γGlu-C20 diacid])PILPPTNVGSNTY-NH2; disulfide 2-7 (inferred); N-terminus assumed) as the compound, how does the Dissolution property [1] read?
Its Dissolution property is “Clear”.

What about the Freeze storage property [1] of the same compound?
The Freeze storage property was “Muddy”.

What about the Freeze storage yield ([1]; concentration of polypeptide after freezing and thawing / concentration before, by liquid chromatography, −20° C. overnight) of the same compound?
The Freeze storage yield was 100.81%.

And the EC50 (human amylin receptor)?
Its EC50 is 0.772 nM.

Reference: patent publication US20260166128A1, “HUMAN AMYLIN ANALOG, AND DERIVATIVE THEREOF AND USE THEREOF” (priority 2022, published 2026)
